In PubChem BioAssay (NCI) one finds TGI data, which are given here for seven molecules.

Common to all, as to test: NCI-60 cell line screen, 48 h
Assay [1] deals with MALME-3M melanoma.
The subject of assay [2] is HCT-15 colon.
The test system of assay [3] is A549 NSCLC.
The subject of assay [4] is SR leukemia.
In assay [5] the test system is HOP-92 NSCLC.
The test system of assay [6] is RXF 393 renal.
Assay [7] deals with SNB-75 CNS.
Assay [8] relates to HT29 colon.
Assay [9] has as its system TK-10 renal.
Assay [10] has as its system SK-MEL-28 melanoma.
Assay [11] relates to MCF7 breast.
Assay [12] relates to MDA-MB-231 breast.
The subject of assay [13] is IGROV1 ovarian.
In assay [14] the test system is OVCAR-5 ovarian.
In assay [15] the test system is T-47D breast.
The subject of assay [16] is LOX IMVI melanoma.
The subject of assay [17] is NCI-H522 lung.
Assay [18] has as its system BT-549 breast.
Assay [19] concerns HCT-116 colon.
Assay [20] relates to SF-539 CNS.

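Tested at 5 concentrations; 48 h exposure; 96-well plates; endpoints linearly interpolated, else capped at highest concentration. At the TGI there is no net growth.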

As to `CC(C)(C)[Si](C)(C)OCC#C[C@@]1(O)CCCCC1CC(Sc1ccccc1)Sc1ccccc1` (some centres undefined), the TGI was 32.3 µM in [1]; 34.5 µM in [2]; 28 µM in assay [3]; 57.4 µM in [4]; 37.4 µM in [5]; 27.1 µM in [6]. For the same molecule, the TGI in assay [7] was 28.7 µM; in assay [8], 27 µM; in assay [9], 31.8 µM; in [10], 31.3 µM; in assay [11], 24.7 µM; in assay [12], 34.7 µM. Moreover, the TGI in assay [13] amounted to 33.3 µM; in [14], 27.2 µM; in assay [15], 25.5 µM; in [16], 34.5 µM; in [17], 26.8 µM; in assay [18], 36.3 µM. The TGI in [19] was determined as 24 µM.

With `CN(C)CCNC(=O)c1cc(-c2nccn2C)nc2ccccc12`, the TGI in assay [1], in assay [2], in assay [3], in assay [4], in assay [5] and in [6] was above 100 µM each time. In addition, the TGI in assay [7], in [8], in assay [9], in assay [11], in [20] and in assay [12] was above 100 µM throughout. The TGI in assay [13], in assay [14], in assay [15], in assay [16], in assay [17] and in assay [18] was above 100 µM throughout. The molecule further showed a TGI in assay [19] above 100 µM.

For the molecule `Nc1cccc(C#Cc2cccc(C#Cc3cccc(N)n3)n2)n1`, the TGI in assay [2], in assay [4], in assay [5], in assay [6], in assay [7] and in [9] was above 100 µM in each case. Moreover, the TGI in assay [11], in assay [20], in assay [12], in [13], in [14] and in assay [15] was above 100 µM throughout. Besides, the TGI in [16], in assay [17], in [18] and in assay [19] was above 100 µM in each case.

For the molecule `COc1ccc([C@H](NC(=O)c2ccccc2)[C@@H](O)C(=O)O[C@H]2C[C@@]3(O)C(OC(=O)c4ccccc4)C4[C@](C)(C(=O)[C@H](OC(C)=O)C(=C2C)C3(C)C)[C@@H](O)C[C@H]2OC[C@@]42OC(C)=O)cc1` (some centres undefined), the TGI is above 10 µM in [1]; above 8.98 µM in assay [2]; above 10 µM in assay [3]; 0.694 µM in [4]; above 10 µM in assay [5]; above 10 µM in [6]. The TGI in assay [7] was 0.0589 µM; in assay [8], 0.0656 µM; in assay [9], above 10 µM; in [10] it was above 10 µM; in [11], above 10 µM; in assay [20], 0.00758 µM. For the same molecule, the TGI in assay [12], in assay [13], in assay [14], in assay [15], in [16] and in [18] was above 10 µM throughout.

On to `CCCCc1ccc(Nc2nc(N)c3ncn(COCCO)c3n2)cc1`, for which the TGI was 52.7 µM in assay [1]; 38.6 µM in assay [2]; above 100 µM in [3]; above 100 µM in assay [4]; 45.1 µM in [5]; 98.2 µM in [6]. Moreover, the TGI in assay [7] was 80.4 µM; in [8], 57.2 µM; in assay [9], above 100 µM; in assay [11] it was above 100 µM; in assay [20], 60.6 µM; in assay [12], 76.7 µM. Besides, the TGI in [13] was 60.8 µM; in [14] it was above 100 µM; in [15], 91.6 µM; in assay [16], 37.4 µM; in assay [17] it was 69.7 µM; in [18], 59.8 µM. For the same molecule, the TGI in assay [19] came to 62.2 µM.

As for `Nc1ncc(CN2CCOCC2)c(-c2ccccc2O)n1`, the TGI in [1], in [2], in [3], in assay [4], in assay [5] and in assay [6] was above 100 µM each time. Also, the TGI in assay [7], in [8], in assay [9], in assay [10], in assay [11] and in assay [20] was above 100 µM throughout. For the same molecule, the TGI in assay [12], in assay [13], in assay [14], in assay [15], in assay [16] and in assay [18] was above 100 µM throughout. Also, the TGI in assay [19] is above 100 µM.

In the case of `CN(C)c1ccc(N=Nc2cccc3ncccc23)cc1`, the TGI in assay [1], in assay [2], in assay [3], in [4], in [5] and in [6] was above 100 µM in each case. Further, the TGI in assay [7], in assay [8], in assay [9], in assay [10], in assay [11] and in assay [20] was above 100 µM each time. The TGI was above 100 µM in [12]; above 100 µM in assay [13]; above 100 µM in assay [15]; above 100 µM in [16]; above 73.8 µM in assay [17]; above 100 µM in assay [18]. Also, the TGI in assay [19] is above 100 µM.
